Source: ChEMBL document CHEMBL3885861, “Open TG-GATES”

Species on record: Rattus norvegicus
Assay: Open TG-GATES - Regimen: Single
Type: toxicity, organism-based, Sprague-Dawley
Design: regimen Single, gender Male, age 6 weeks
Conditions: in vivo, po, 0 mg/kg, route gavage, dose level Control; for APTT / Bas / Eos / Fbg / Hb / Ht / Lym / MCH / MCHC / MCV / Mono / Neu / PT / Plat / RBC / Ret / WBC: tissue Blood; for KIDNEY_L / KIDNEY_R / KIDNEY_TOTAL: tissue Kidney; for LIVER: tissue Liver; for A/G / ALP / ALT / AST / BUN / CRE / Ca / Cl / DBIL / GLC / IP / K / LDH / Na / PL / RALB / TBIL / TC / TG / TP / gamma-GTP: tissue Plasma

CN(C)CCN(Cc1cccs1)c1ccccn1
TERMINAL_BW (3 h): 183.4 g
APTT (3 h): 20.4 s
Bas (3 h): 0%
Eos (3 h): 0.4%
Fbg (3 h): 308 mg/dL
Hb (3 h): 13.1 g/dL
Ht (3 h): 40.4%
Lym (3 h): 76.8%
MCH (3 h): 20.9 pg
MCHC (3 h): 32.5%
MCV (3 h): 64.2 fL
Mono (3 h): 2.4%
Neu (3 h): 20%
PT (3 h): 16.5 s
Plat (3 h): 124.4 x10_4/uL
RBC (3 h): 629.4 x10_4/ul
Ret (3 h): 7.8%
WBC (3 h): 76.5 x10_2/uL
KIDNEY_L (3 h): 0.8 g
KIDNEY_R (3 h): 0.9 g
KIDNEY_TOTAL (3 h): 1.7 g
LIVER (3 h): 8.4 g
A/G (3 h): 1.2
ALP (3 h): 1580.4 IU/L
ALT (3 h): 41.4 IU/L
AST (3 h): 72.8 IU/L
BUN (3 h): 14.4 mg/dL
CRE (3 h): 0.2 mg/dL
Ca (3 h): 10.3 mg/dL
Cl (3 h): 107.4 meq/L
DBIL (3 h): 0 mg/dL
GLC (3 h): 181.8 mg/dL
IP (3 h): 7.7 mg/dL
K (3 h): 4.2 meq/L
LDH (3 h): 227 IU/L
Na (3 h): 142.8 meq/L
PL (3 h): 127.6 mg/dL
RALB (3 h): 2.9 g/dL
TBIL (3 h): 0.008 mg/dL
TC (3 h): 70.4 mg/dL
TG (3 h): 42.6 mg/dL
TP (3 h): 5.3 g/dL
gamma-GTP (3 h): 1 IU/L
TERMINAL_BW (6 h): 186.2 g
APTT (6 h): 20.7 s
Bas (6 h): 0%
Eos (6 h): 0.4%
Fbg (6 h): 303 mg/dL
Hb (6 h): 12.6 g/dL
Ht (6 h): 38.6%
Lym (6 h): 84.6%
MCH (6 h): 21 pg
MCHC (6 h): 32.7%
MCV (6 h): 64.1 fL
Mono (6 h): 1.6%
Neu (6 h): 12.4%
PT (6 h): 17.2 s
Plat (6 h): 119.7 x10_4/uL
RBC (6 h): 603 x10_4/ul
Ret (6 h): 7.8%
WBC (6 h): 97.9 x10_2/uL
KIDNEY_L (6 h): 0.9 g
KIDNEY_R (6 h): 0.9 g
KIDNEY_TOTAL (6 h): 1.7 g
LIVER (6 h): 8.3 g
A/G (6 h): 1.2
ALP (6 h): 1742 IU/L
ALT (6 h): 37.4 IU/L
AST (6 h): 68.4 IU/L
BUN (6 h): 10.8 mg/dL
CRE (6 h): 0.2 mg/dL
Ca (6 h): 10 mg/dL
Cl (6 h): 106.2 meq/L
DBIL (6 h): 0 mg/dL
GLC (6 h): 174.2 mg/dL
IP (6 h): 9 mg/dL
K (6 h): 4.1 meq/L
LDH (6 h): 171.6 IU/L
Na (6 h): 141.8 meq/L
PL (6 h): 127.2 mg/dL
RALB (6 h): 2.9 g/dL
TBIL (6 h): 0.016 mg/dL
TC (6 h): 74.8 mg/dL
TG (6 h): 44.6 mg/dL
TP (6 h): 5.3 g/dL
gamma-GTP (6 h): 1 IU/L
TERMINAL_BW (9 h): 180.7 g
APTT (9 h): 20.7 s
Bas (9 h): 0%
Eos (9 h): 0.8%
Fbg (9 h): 296.8 mg/dL
Hb (9 h): 13 g/dL
Ht (9 h): 39.3%
Lym (9 h): 82.2%
MCH (9 h): 21.1 pg
MCHC (9 h): 33.1%
MCV (9 h): 63.9 fL
Mono (9 h): 1.6%
Neu (9 h): 14.8%
PT (9 h): 15.6 s
Plat (9 h): 121.1 x10_4/uL
RBC (9 h): 615.8 x10_4/ul
Ret (9 h): 7.7%
WBC (9 h): 69.3 x10_2/uL
KIDNEY_L (9 h): 0.8 g
KIDNEY_R (9 h): 0.8 g
KIDNEY_TOTAL (9 h): 1.6 g
LIVER (9 h): 7.3 g
A/G (9 h): 1.2
ALP (9 h): 1371.8 IU/L
ALT (9 h): 33.8 IU/L
AST (9 h): 66.4 IU/L
BUN (9 h): 11.2 mg/dL
CRE (9 h): 0.2 mg/dL
Ca (9 h): 10.1 mg/dL
Cl (9 h): 106.8 meq/L
DBIL (9 h): 0 mg/dL
GLC (9 h): 177.8 mg/dL
IP (9 h): 9.6 mg/dL
K (9 h): 4.2 meq/L
LDH (9 h): 171.2 IU/L
Na (9 h): 142.4 meq/L
PL (9 h): 133.2 mg/dL
RALB (9 h): 2.9 g/dL
TBIL (9 h): 0.018 mg/dL
TC (9 h): 73.4 mg/dL
TG (9 h): 59.4 mg/dL
TP (9 h): 5.3 g/dL
gamma-GTP (9 h): 1 IU/L
TERMINAL_BW (24 h): 200.8 g
APTT (24 h): 20.1 s
Bas (24 h): 0%
Eos (24 h): 0.8%
Fbg (24 h): 280.8 mg/dL
Hb (24 h): 12.9 g/dL
Ht (24 h): 39.1%
Lym (24 h): 79.2%
MCH (24 h): 21.2 pg
MCHC (24 h): 33%
MCV (24 h): 64.3 fL
Mono (24 h): 2.4%
Neu (24 h): 17%
PT (24 h): 16.5 s
Plat (24 h): 120.3 x10_4/uL
RBC (24 h): 608.2 x10_4/ul
Ret (24 h): 8%
WBC (24 h): 89.7 x10_2/uL
KIDNEY_L (24 h): 0.9 g
KIDNEY_R (24 h): 0.9 g
KIDNEY_TOTAL (24 h): 1.8 g
LIVER (24 h): 9.4 g
A/G (24 h): 1.2
ALP (24 h): 1802.6 IU/L
ALT (24 h): 41.6 IU/L
AST (24 h): 71.8 IU/L
BUN (24 h): 16.8 mg/dL
CRE (24 h): 0.2 mg/dL
Ca (24 h): 11 mg/dL
Cl (24 h): 105.6 meq/L
DBIL (24 h): 0.002 mg/dL
GLC (24 h): 188 mg/dL
IP (24 h): 7.4 mg/dL
K (24 h): 4.4 meq/L
LDH (24 h): 206.4 IU/L
Na (24 h): 142.4 meq/L
PL (24 h): 149.8 mg/dL
RALB (24 h): 3 g/dL
TBIL (24 h): 0.018 mg/dL
TC (24 h): 77.8 mg/dL
TG (24 h): 92.6 mg/dL
TP (24 h): 5.4 g/dL
gamma-GTP (24 h): 1 IU/L
